“And” between values parts separate entries of the source, which are not always exact repeats. Equal entries are not always repeated.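 Step 1: Grow cells in 96-well plates. Step 2: Expose to compound for 48 hours at 5 concentrations. Step 3: Interpolate endpoints linearly; if unreached, use highest concentration. GI50 marks 50% less growth. At the TGI there is no net growth.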
Tests used:
Assay in all cases: growth of human tumour cells (NCI), 48 h
[1] = test system: CCRF-CEM leukemia
[2] = test system: MDA-N
[3] = test system: SNB-75 CNS
[4] = test system: HOP-62 NSCLC
[5] = test system: SK-MEL-28 melanoma
[6] = test system: HL-60(TB) leukemia
[7] = test system: A498 renal
[8] = test system: M14 melanoma
[9] = test system: ACHN renal
[10] = test system: COLO 205 colon
[11] = test system: OVCAR-4 ovarian
[12] = test system: 786-0 renal
[13] = test system: HT29 colon
[14] = test system: HCC-2998 colon
[15] = test system: HS 578T breast
[16] = test system: MDA-MB-231 breast
[17] = test system: K-562 leukemia
[18] = test system: NCI-H522 lung
[19] = test system: SK-OV-3 ovarian
[20] = test system: HOP-92 NSCLC
[21] = test system: RPMI-8226 leukemia
[22] = test system: SF-539 CNS
[23] = test system: MDA-MB-435
[24] = test system: SK-MEL-5 melanoma
[25] = test system: LOX IMVI melanoma
[26] = test system: OVCAR-8 ovarian
[27] = test system: SR leukemia
[28] = test system: UACC-257 melanoma
[29] = test system: UACC-62 melanoma
[30] = test system: NCI/ADR-RES ovarian
[31] = test system: SN12C renal
[32] = test system: MOLT-4 leukemia
[33] = test system: A549 NSCLC
[34] = test system: IGROV1 ovarian
[35] = test system: OVCAR-3 ovarian
[36] = test system: SK-MEL-2 melanoma
[37] = test system: SNB-19 CNS
[38] = test system: HCT-15 colon
[39] = test system: NCI-H226 lung
[40] = test system: SW-620 colon
[41] = test system: NCI-H23 lung
[42] = test system: UO-31 renal
[43] = test system: U251 CNS
[44] = test system: BT-549 breast
[45] = test system: PC-3 prostate
[46] = test system: HCT-116 colon
[47] = test system: NCI-H460 lung
[48] = test system: CAKI-1 renal
[49] = test system: OVCAR-5 ovarian
[50] = test system: SF-268 CNS
[51] = test system: DU-145 prostate
[52] = test system: KM12 colon
[53] = test system: EKVX NSCLC
[54] = test system: TK-10 renal
[55] = test system: SF-295 CNS

Structure (SMILES): C=C(C)[C@@H]1CC[C@]2(COC(C)=O)CC[C@]3(C)[C@H](CC[C@@H]4[C@@]5(C)CC[C@H](OC(C)=O)C(C)(C)[C@@H]5CC[C@]43C)[C@@H]12
- TGI [1]: > 50000 nM
- TGI [2]: > 50000 nM
- TGI [3]: > 50000 nM
- TGI [4]: > 50000 nM
- TGI [5]: > 50000 nM
- TGI [6]: > 50000 nM
- TGI [7]: > 50000 nM
- TGI [8]: > 50000 nM
- TGI [9]: > 50000 nM
- TGI [10]: > 50000 nM
- TGI [11]: > 50000 nM
- TGI [12]: > 50000 nM
- TGI [13]: > 50000 nM
- TGI [14]: 1670 nM
- TGI [15]: > 50000 nM
- TGI [16]: > 50000 nM
- TGI [17]: > 50000 nM
- TGI [18]: > 50000 nM
- TGI [19]: > 50000 nM
- TGI [20]: > 50000 nM
- TGI [21]: > 50000 nM
- TGI [22]: > 50000 nM
- TGI [23]: > 50000 nM
- TGI [24]: > 50000 nM
- TGI [25]: > 50000 nM
- TGI [26]: > 50000 nM
- TGI [27]: > 50000 nM
- TGI [28]: > 50000 nM
- TGI [29]: > 50000 nM
- TGI [30]: > 50000 nM
- TGI [31]: > 50000 nM
- TGI [32]: > 50000 nM
- TGI [33]: > 50000 nM
- TGI [34]: > 50000 nM
- TGI [35]: > 50000 nM
- TGI [36]: > 50000 nM
- TGI [37]: > 50000 nM
- TGI [38]: > 50000 nM
- TGI [39]: > 50000 nM
- TGI [40]: > 50000 nM
- TGI [41]: > 50000 nM
- TGI [42]: > 50000 nM
- TGI [43]: > 50000 nM
- TGI [44]: > 50000 nM
- TGI [45]: > 50000 nM
- TGI [46]: > 50000 nM

Structure (SMILES): CCc1c2c(nc3ccc(O)cc13)-c1cc3c(c(=O)n1C2)COC(=O)[C@]3(O)CC
- TGI [1]: > 100000 nM
- GI50 [2]: 1920 nM
- TGI [2]: > 100000 nM
- TGI [3]: 351 nM
- GI50 [5]: 246 nM
- TGI [5]: > 19700 nM
- TGI [8]: 488 nM and 156 nM
- TGI [47]: 147 nM and 536 nM
- TGI [48]: 28.6 nM and 98.5 nM
- TGI [9]: 32.2 nM and 123 nM
- GI50 [10]: 71.1 nM
- TGI [10]: 12200 nM
- GI50 [11]: 279 nM
- TGI [13]: 526 nM
- GI50 [49]: 246 nM
- TGI [49]: 4560 nM
- GI50 [15]: 4120 nM
- TGI [15]: > 100000 nM
- GI50 [16]: 524 nM
- TGI [16]: > 100000 nM
- TGI [17]: > 100000 nM
- TGI [18]: 885 nM and 317 nM
- GI50 [19]: < 1 nM
- TGI [19]: 342 nM and 792 nM
- GI50 [20]: < 1 nM
- GI50 [21]: < 1 nM
- TGI [23]: 292 nM and 1570 nM
- TGI [50]: 3680 nM
- TGI [51]: 3100 nM
- GI50 [28]: 83.8 nM
- GI50 [52]: 78.4 nM
- TGI [52]: 2640 nM
- GI50 [53]: 545 nM
- TGI [53]: > 100000 nM
- TGI [30]: 6450 nM
- TGI [31]: > 100000 nM
- GI50 [33]: < 1 nM
- TGI [33]: 8340 nM
- GI50 [35]: 64.9 nM
- TGI [35]: 2550 nM and 1670 nM
- TGI [36]: 282 nM
- GI50 [54]: 606 nM
- TGI [37]: > 12700 nM
- GI50 [38]: 206 nM
- TGI [38]: > 100000 nM
- TGI [39]: 10.9 nM and 89.2 nM
- TGI [40]: > 100000 nM
- TGI [55]: 50.3 nM
- TGI [42]: 15.2 nM and 115 nM
- GI50 [44]: 10.3 nM
- TGI [44]: 293 nM
- GI50 [45]: 85.7 nM
- TGI [45]: > 100000 nM
- TGI [46]: > 36100 nM

Source: PubChem BioAssay (NCI)
